Data on five molecules can be found in patent US9029345B2, “Selective inhibitors of translesion DNA replication” (Case Western Reserve University, priority 2005, dated 2015).

For one data set, the system named is control Sf9 membranes. The data set is described as follows: ATPase activity of control Sf9 membranes. The data set is classed as biochemical. How it is done: (§1) The in vitro activity of the triphosphate of 5-CHInd (5-CHITP) against P-gp was evaluated through its ability to inhibit vinblastine-stimulated ATP hydrolysis. These experiments used purified P-gp membranes expressed and isolated in Sf9 insect cells (BD Biosciences). ATP hydrolysis was quantified by the amount of ^32Pi release from γ^32P-ATP as a function of time. Reactions containing vinblastine were initiated by the addition of membranes and quenched in trichloroacetic acid and ammonium heptamolybdate. Heptamolybdophosphoric acid was separated by organic phase extraction and the presence of ^32Pi was quantified by liquid scintillation counting. […] The inhibition of 5-CHITP is selective for P-gp as the ATPase activity of control Sf9 membranes is not inhibited whereas sodium orthovanadate inhibits by about 50%.

The target in data set [1] is T1, P-gp (Homo sapiens, UniProt P08183). The data set is described as follows: vinblastine-stimulated ATP hydrolysis by purified P-gp membranes (32Pi release). It is filed as biochemical. The arrangement: endogenous in cells. The method, then: as §1
The target of data set [2] is T2, P-glycoprotein (Homo sapiens, UniProt P08183).
T2 construct: endogenous in cells; host or cells: CEM/VBL (CEM-VBL) leukemia cells
In words: export of Hoechst dye from CEM/VBL cells overexpressing P-gp. It is filed as cell-based. The conditions noted are these: sub-lethal concentration, compared to untreated CEM/VBL. From the text: (§2) This was first determined using the NIMH Psychoactive Drug Screening Program (PDSP) which performs pharmacological and functional screens of novel compounds. This initial screening effort lead us to test the ability of 5-CHInd to block the export of Hoechst dye, a known substrate for P-gp. Control experiments verify that CEM cells not overexpressing p-glycoprotein show accumulation of the Hoechst dye as indicated by nuclear staining (FIG. 3A).

For data set [3], the target named is T2, P-glycoprotein. In words: NIMH Psychoactive Drug Screening Program (PDSP) screen. As to conditions: first determined using PDSP.
From the text: as §2

The subject of the next data set is SKOV3 cells. The data set is described as follows: potentiation of vinblastine in SKOV3 cells. The conditions noted are these: 25 or 50 μg/ml 5-CHInd with 0.5 or 1 μg/ml vinblastine. It is filed as cell-based. The method, then:
(§3) The potentiation of vinblstine by 5-CHInd was also assessed in MDR negative cesll (SKOV3) and MDR positive SKOV/VBL cells by administering various concentrations of vinblastine and 5-CHInd to the cells. FIG. 6 is a graph illustrating the cytoxic effect of 25 μg/ml of 5-CHInd (CH25), 50 μg/ml of 5-CHInd (CH50), 0.5 μg/ml of vinblastine (VinB 0.5), 1 μg/ml of vinblastine (VinB 1), 25 μg/ml of 5-CHInd in combination with 0.5 μg/ml of vinblastine (CH25+VinB 0.5), 25 μg/ml of 5-CHInd in combination with 1 μg/ml of vinblastine (CH25+VinB 1), 50 μg/ml of 5-CHInd in combination with 0.5 μg/ml of vinblastine (CH50+VinB 0.5), and 50 μg/ml of 5-CHInd in combination with 1 μg/ml of vinblastine (CH50+VinB 1) administered respectively to SKOV3 and SKOV/VBL cells.

Another data set relates to SKOV/VBL cells. In words: potentiation of vinblastine in SKOV/VBL cells. It is filed as cell-based. As to conditions: 25 or 50 μg/ml 5-CHInd with 0.5 or 1 μg/ml vinblastine. The method, then: as §3
The test system of another data set is CEM-C7 cells. In words: intracellular [3H]-vinblastine accumulation and efflux in CEM-C7 cells. The data set is classed as cell-based. As to conditions: devoid of P-gp.
A further data set concerns CDKs. In words: flow cytometry, cell cycle. The data set is classed as cell-based. As to conditions: preliminary flow cytometry data. On the technique in general: In flow cytometry, cells or beads pass a laser one at a time.
Data set [4] deals with T1, P-gp.
Data set [5] has as its target T1, P-gp. In words: intracellular [3H]-vinblastine accumulation and efflux in CEM-VBL cells. It is filed as cell-based. The arrangement: endogenous in cells. The method, then: Intracellular drug accumulation studies use confluent CEM-C7 and CEM-VBL cells incubated with [^3H]-vinblastine (Moravek Biochemicals, Brea, Calif.) in the absence or presence of 5-CHInd. After attainment of equilibrium, cells are harvested and washed to remove any unbound [^3H]-vinblastine. Washed cells are then solubized and the retained radioactivity is quantified by liquid scintillation techniques. Measured radioactivity is normalized for protein content, and drug accumulation is expressed as a percentage of the vehicle control.
To measure the effect of 5-CHInd on the efflux of [^3H]-vinblastine, CEM-VBL cells are incubated with a sub-lethal dose of 5-CHInd or vehicle (DMSO) followed by the addition of a fixed concentration of [^3H]-vinblastine. After attainment of equilibrium, cells are washed and aliquots are analyzed for [^3H]-vinblastine accumulation at variable times (5 to 120 minutes). The efflux rate constant is obtained from a fit of the data to y=Ae^−kt where y is the amount of radioactivity at time t, A is maximal amplitude in accumulation, k is the efflux rate constant, and t is time.

Data set [6] has as its target T1, P-gp. The data set is described as follows: control experiments: potentiation of other chemotherapeutic agents. The conditions noted are these: does not inhibit P-gp.

T1 sequence (P08183 whole entry): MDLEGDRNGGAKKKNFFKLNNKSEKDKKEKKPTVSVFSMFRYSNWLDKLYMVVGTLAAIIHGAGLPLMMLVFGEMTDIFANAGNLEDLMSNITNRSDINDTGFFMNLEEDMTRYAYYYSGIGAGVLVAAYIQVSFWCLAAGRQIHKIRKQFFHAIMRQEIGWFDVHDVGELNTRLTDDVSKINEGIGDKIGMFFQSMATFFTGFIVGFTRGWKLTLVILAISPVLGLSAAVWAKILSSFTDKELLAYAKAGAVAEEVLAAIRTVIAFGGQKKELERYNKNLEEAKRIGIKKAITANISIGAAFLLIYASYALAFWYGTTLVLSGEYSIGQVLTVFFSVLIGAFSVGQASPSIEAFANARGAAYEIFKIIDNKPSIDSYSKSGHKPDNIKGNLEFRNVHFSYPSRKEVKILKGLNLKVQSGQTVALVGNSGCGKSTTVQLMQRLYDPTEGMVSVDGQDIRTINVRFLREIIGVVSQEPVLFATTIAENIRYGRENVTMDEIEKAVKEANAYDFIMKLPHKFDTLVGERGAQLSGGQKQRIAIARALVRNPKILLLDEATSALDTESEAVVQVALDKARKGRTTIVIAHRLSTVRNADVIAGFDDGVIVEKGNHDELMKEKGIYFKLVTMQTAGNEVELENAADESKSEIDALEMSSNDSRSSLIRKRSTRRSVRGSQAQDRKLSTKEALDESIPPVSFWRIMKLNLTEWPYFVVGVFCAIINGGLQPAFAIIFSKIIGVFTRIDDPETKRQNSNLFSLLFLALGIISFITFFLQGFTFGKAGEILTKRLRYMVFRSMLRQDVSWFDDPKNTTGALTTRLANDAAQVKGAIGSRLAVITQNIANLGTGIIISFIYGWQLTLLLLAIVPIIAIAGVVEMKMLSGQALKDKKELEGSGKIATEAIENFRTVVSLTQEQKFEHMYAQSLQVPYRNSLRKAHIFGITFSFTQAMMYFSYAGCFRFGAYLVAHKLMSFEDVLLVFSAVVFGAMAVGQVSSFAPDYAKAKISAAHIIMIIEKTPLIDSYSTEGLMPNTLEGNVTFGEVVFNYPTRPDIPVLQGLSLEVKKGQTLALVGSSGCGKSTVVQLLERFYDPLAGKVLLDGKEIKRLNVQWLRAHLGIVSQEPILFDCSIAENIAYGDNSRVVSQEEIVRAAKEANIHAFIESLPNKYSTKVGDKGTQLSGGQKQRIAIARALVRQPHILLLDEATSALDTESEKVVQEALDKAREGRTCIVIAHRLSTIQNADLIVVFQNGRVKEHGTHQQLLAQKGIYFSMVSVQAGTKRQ
T2 sequence (P08183 whole entry): as above

Turning to `O=P(O)(O)OP(=O)(O)OP(=O)(O)OC[C@H]1O[C@@H](n2ccc3cc(C4CCCCC4)ccc32)C[C@@H]1O` [5-CHITP], the “inhibition of ATPase activity of control Sf9 membranes” value in the data set with control Sf9 membranes (5-CHITP) is “not inhibited”. For the same molecule, the “inhibition of ATPase activity of P-gp” value against P-gp [1] (50 μM) was found to be 52%.
Turning to `OC[C@H]1OC(n2ccc3cc(C4CCCCC4)ccc32)C[C@@H]1O` (some centres unmarked) [5-CHInd, 5-cylclohexyl-1-indolyl-2-deoxyriboside], the “accumulation of Hoechst dye (inhibition of P-gp export)” value at P-glycoprotein [2] is “enhanced accumulation of the Hoechst dye”. Besides, the “inhibition of p-glycoprotein activity” value against P-glycoprotein [3] is “can inhibit the activity of p-glycoprotein”. Besides, the “potentiation of vinblastine (FIG. 6)” value with SKOV3 cells is on record as “potentiation of vinblastine”. Besides, the “potentiation of vinblastine (FIG. 6)” value with SKOV/VBL cells is “potentiation of vinblastine”. Besides, in the data set with CEM-C7 cells, the “effect on accumulation or efflux of [3H]-vinblastine” value is recorded as “no effect”. The cell cycle arrest entry with CDKs is listed as “induces cell cycle arrest”. In addition, in the data set on leukemia cell lines, the LD50 entry is “about 20 μg/mL”. Further, the “cytotoxic effect (flow cytometry, FIG. 2)” value in the data set with leukemia cell lines (leukemia cells, closely mimics staurosporine) is recorded as “rapid cytotoxic effect”. Also, at P-gp [4], the “potentiation of the effects of 5-fluorouracil” value is on record as “does not potentiate”, the “potentiation of the effects of cisplatin” value is listed as “does not potentiate”, the “potentiation of the effects of doxorobucin” value was “potentiates” and the “potentiation of the effects of paclitaxel” value was “potentiates”. For the same molecule, the “accumulation of [3H]-vinblastine” value on P-gp [5] is recorded as “significant accumulation”. Besides, the “rate constant for drug efflux” value at P-gp [5] (compared to vehicle-treated cells) is on record as “decrease in rate constant for drug efflux”.
On to `OC[C@H]1OC(n2ccc3cc(-c4ccccc4)ccc32)C[C@@H]1O` (some centres unmarked) [5-PhInd], for which the cell death entry in the data set with leukemia cell lines (at the concentrations tested, data not shown) is given as “cause cell death”.
For `[Na+].[Na+].[Na+].[O]=[V]([O-])([O-])[O-]` [sodium orthovanadate, reference compound], the “inhibition of ATPase activity of control Sf9 membranes” value in the data set on control Sf9 membranes (sodium orthovanadate) is given as “about 50%”. Besides, the “inhibition of ATPase activity of P-gp” value against P-gp [1] (1 μM, compared with 52% by 50 μM 5-CHITP) was “comparable”.
As to `CN[C@@H]1C[C@H]2O[C@@](C)([C@@H]1OC)n1c3ccccc3c3c4c(c5c6ccccc6n2c5c31)C(=O)NC4` [staurosporine], the “action as potentiating agent” value at P-gp [6] is recorded as “does not act as a potentiating agent”.
